Data taken from patent US12643871B2, “Aryl formamide compound containing chiral sulfur oxide or salt thereof, preparation method, herbicidal composition and use thereof” (Qingdao Kingagroot Chemical Compound Co., Ltd., priority 2019, dated 2026).

How the values were obtained:
Assay type in all cases: in vivo
Alopecurus japonicas = assay: Comparison experiment (post-emergence) against racemate / S configuration; conditions: Table 6, post-seedling test conditions
Text: (§1) The above growth control rates are fresh weight control rates.
(§2) Experiment on weeding effect in post-emergence stage: monocotyledonous and dicotyledonous weed seeds (Descurainia sophia, Capsella bursa-pastoris, Galium aparine, Stellaria media, Lithospermum arvense, Rorippa indica, Alopecurus aequalis, Beckmannia syzigachne, Sclerochloa dura, Phleum paniculatum, Bromus japonicus, Aegilops tauschii, Phalaris arundinacea, Amaranthus retroflexus, Chenopodiaceae, Commelina communis, Sonchus arvensis, convolvulus arvensis, Cirsium setosum, Solanum nigrum, Acalypha australis, Digitaria sanguinalis, Echinochloa crusgalli, Setaria viridis, Setaria glauca, Leptochloa chinensis, Monochoria vaginalis, Sagittaria trifolia, Scirpus juncoides, Cyperus rotundus, Cyperus iria, Cyperus difformis, Fimbristylis, Portulaca oleracea, Xanthium sibiricum, Pharbitis nil) and major crop seeds (wheat, corn, rice, soybean, cotton, oilseed rape, millet, sorghum, potato, sesame, ricinus) were placed in plastic pots filled with soil, then covered with 0.5-2 cm of soil, allowed to grow in a good greenhouse environment. After 2 weeks of sowing, the test plants were treated in the 2 leaf stage. The tested compounds of the present invention were respectively dissolved in acetone, then added with Tween 80 and 1.5 liter/ha of emulsifiable concentrate of methyl oleate as synergist, diluted with a certain amount of water to obtain a solution with a certain concentration, and sprayed with a spray tower onto the plants. After the application, the plants were cultured for 15 days in the greenhouse, and then the experimental results of the weeding were counted. The doses of the used compounds were 500, 250, 125, 60, 30, 15 g/ha, and the averages were obtained by repeating for three times.
(§3) If there is no clear marker, the post-seedling test conditions are the same as above, and the experimental results are shown in Tables 4-7.

Digitaria sanguinalis [1] = assay: as above; conditions: Table 6, post-seedling test conditions
Text: as §1, §2, §3

Abutilon theophrasti = assay: as above; conditions: Abutilon theophrasti (3.5 leaf), 16DAA
Green Setaria viridis = assay: as above; conditions: for Results of comparison experiment (16DAA), weed control: Setaria viridis (4 leaf)
Leptochloa chinensis = assay: as above; conditions: Leptochloa chinensis (4.5 leaf), 16DAA
Corn-Zhengdan 958 = assay: Comparison experiment (post-emergence, Table 7), crop safety on corn; conditions: Corn-Zhengdan 958 (3.5 leaf)
Text: as §3

Amaranthus retroflexus = assay: Comparison experiment (post-emergence, Table 7); conditions: Amaranthus retroflexus (6 leaf)
Text: as §3

Capsella bursa-pastoris = assay: Comparison experiment (post-emergence, Table 7); conditions: Capsella bursa-pastoris (10-11 leaf)
Text: as §3

Descurainia sophia = assay: Comparison experiment (post-emergence, Table 7); conditions: Descurainia sophia (12 leaf)
Text: as §3

Echinochloa crusgali = assay: Comparison experiment (post-emergence, Table 7); conditions: Echinochloa crusgali (3 leaf)
Text: as §3

Galium aparine = assay: Comparison experiment (post-emergence, Table 7); conditions: Galium aparine (5 branches)
Text: as §3

Malachium aquaticum = assay: Comparison experiment (post-emergence, Table 7); conditions: Malachium aquaticum (2 branches)
Text: as §3

Sinapis arvensis = assay: Comparison experiment (post-emergence, Table 7); conditions: Sinapis arvensis (3.5 leaf)
Text: as §3

Veronica didyma = assay: Comparison experiment (post-emergence, Table 7); conditions: Veronica didyma (2 branches)
Text: as §3

Digitaria sanguinalis [2] = assay: Comparison experiment (post-emergence) against racemate / S configuration; conditions: Digitaria sanguinalis (3.5 leaf), 16DAA

CC[S+]([O-])c1c(C(F)(F)F)ccc(C(=O)Nc2nnc(C)o2)c1SC (centres unmarked) [Control Compound A′, reference compound]
Results of comparison experiment, Alopecurus japonicas (120 g/ha) (Alopecurus japonicas): 20% | Results of comparison experiment, Digitaria sanguinalis (30 g/ha) (Digitaria sanguinalis [1]): 50% | Results of comparison experiment (16DAA), weed control (Abutilon theophrasti; 3 g/ha): 10% | Results of comparison experiment (16DAA), weed control (Abutilon theophrasti; 6 g/ha): 20% | Results of comparison experiment (16DAA), weed control (Abutilon theophrasti; 12 g/ha): 30% | Results of comparison experiment (16DAA), weed control (Abutilon theophrasti; 24 g/ha): 40% | Results of comparison experiment (16DAA), weed control (Abutilon theophrasti; 48 g/ha): 50% | Results of comparison experiment, Green Setaria viridis (30 g/ha) (Green Setaria viridis; 30 g/ha, Table 6, post-seedling test conditions): 90% | Results of comparison experiment (16DAA), weed control (Green Setaria viridis; 3 g/ha): 0% | Results of comparison experiment (16DAA), weed control (Green Setaria viridis; 6 g/ha): 0% | Results of comparison experiment (16DAA), weed control (Green Setaria viridis; 12 g/ha): 10% | Results of comparison experiment (16DAA), weed control (Green Setaria viridis; 24 g/ha): 40% | Results of comparison experiment (16DAA), weed control (Green Setaria viridis; 48 g/ha): 50% | Results of comparison experiment (16DAA), weed control (Leptochloa chinensis; 3 g/ha): 0% | Results of comparison experiment (16DAA), weed control (Leptochloa chinensis; 6 g/ha): 0% | Results of comparison experiment (16DAA), weed control (Leptochloa chinensis; 12 g/ha): 0% | Results of comparison experiment (16DAA), weed control (Leptochloa chinensis; 24 g/ha): 10% | Results of comparison experiment (16DAA), weed control (Leptochloa chinensis; 48 g/ha): 20% | Results of comparison experiment (16DAA), crop damage (Corn-Zhengdan 958; 3 g/ha): 0% | Results of comparison experiment (16DAA), crop damage (Corn-Zhengdan 958; 6 g/ha): 0% | Results of comparison experiment (16DAA), crop damage (Corn-Zhengdan 958; 12 g/ha): 0% | Results of comparison experiment (16DAA), crop damage (Corn-Zhengdan 958; 24 g/ha): 0% | Results of comparison experiment (16DAA), crop damage (Corn-Zhengdan 958; 48 g/ha): 0% | Results of comparison experiment (16DAA), weed control (Amaranthus retroflexus; 3 g/ha): 10% | Results of comparison experiment (16DAA), weed control (Amaranthus retroflexus; 6 g/ha): 10% | Results of comparison experiment (16DAA), weed control (Amaranthus retroflexus; 12 g/ha): 40% | Results of comparison experiment (16DAA), weed control (Amaranthus retroflexus; 24 g/ha): 50% | Results of comparison experiment (16DAA), weed control (Amaranthus retroflexus; 48 g/ha): 50% | Results of comparison experiment (16DAA), weed control (Capsella bursa-pastoris; 3 g/ha): 0% | Results of comparison experiment (16DAA), weed control (Capsella bursa-pastoris; 6 g/ha): 10% | Results of comparison experiment (16DAA), weed control (Capsella bursa-pastoris; 12 g/ha): 10% | Results of comparison experiment (16DAA), weed control (Capsella bursa-pastoris; 24 g/ha): 20% | Results of comparison experiment (16DAA), weed control (Capsella bursa-pastoris; 48 g/ha): 30% | Results of comparison experiment (16DAA), weed control (Descurainia sophia; 3 g/ha): 0% | Results of comparison experiment (16DAA), weed control (Descurainia sophia; 6 g/ha): 10% | Results of comparison experiment (16DAA), weed control (Descurainia sophia; 12 g/ha): 20% | Results of comparison experiment (16DAA), weed control (Descurainia sophia; 24 g/ha): 30% | Results of comparison experiment (16DAA), weed control (Descurainia sophia; 48 g/ha): 40% | Results of comparison experiment (16DAA), weed control (Echinochloa crusgali; 3 g/ha): 10% | Results of comparison experiment (16DAA), weed control (Echinochloa crusgali; 6 g/ha): 20% | Results of comparison experiment (16DAA), weed control (Echinochloa crusgali; 12 g/ha): 30% | Results of comparison experiment (16DAA), weed control (Echinochloa crusgali; 24 g/ha): 40% | Results of comparison experiment (16DAA), weed control (Echinochloa crusgali; 48 g/ha): 50% | Results of comparison experiment (16DAA), weed control (Galium aparine; 3 g/ha): 0% | Results of comparison experiment (16DAA), weed control (Galium aparine; 6 g/ha): 0% | Results of comparison experiment (16DAA), weed control (Galium aparine; 12 g/ha): 0% | Results of comparison experiment (16DAA), weed control (Galium aparine; 24 g/ha): 0% | Results of comparison experiment (16DAA), weed control (Galium aparine; 48 g/ha): 10% | Results of comparison experiment (16DAA), weed control (Malachium aquaticum; 3 g/ha): 10% | Results of comparison experiment (16DAA), weed control (Malachium aquaticum; 6 g/ha): 10% | Results of comparison experiment (16DAA), weed control (Malachium aquaticum; 12 g/ha): 20% | Results of comparison experiment (16DAA), weed control (Malachium aquaticum; 24 g/ha): 30% | Results of comparison experiment (16DAA), weed control (Malachium aquaticum; 48 g/ha): 50% | Results of comparison experiment (16DAA), weed control (Sinapis arvensis; 3 g/ha): 0% | Results of comparison experiment (16DAA), weed control (Sinapis arvensis; 6 g/ha): 0% | Results of comparison experiment (16DAA), weed control (Sinapis arvensis; 12 g/ha): 20% | Results of comparison experiment (16DAA), weed control (Sinapis arvensis; 24 g/ha): 40% | Results of comparison experiment (16DAA), weed control (Sinapis arvensis; 48 g/ha): 50% | Results of comparison experiment (16DAA), weed control (Veronica didyma; 3 g/ha): 10% | Results of comparison experiment (16DAA), weed control (Veronica didyma; 6 g/ha): 10% | Results of comparison experiment (16DAA), weed control (Veronica didyma; 12 g/ha): 20% | Results of comparison experiment (16DAA), weed control (Veronica didyma; 24 g/ha): 20% | Results of comparison experiment (16DAA), weed control (Veronica didyma; 48 g/ha): 20% | Results of comparison experiment (16DAA), weed control (Digitaria sanguinalis [2]; 3 g/ha): 10% | Results of comparison experiment (16DAA), weed control (Digitaria sanguinalis [2]; 6 g/ha): 10% | Results of comparison experiment (16DAA), weed control (Digitaria sanguinalis [2]; 12 g/ha): 20% | Results of comparison experiment (16DAA), weed control (Digitaria sanguinalis [2]; 24 g/ha): 30% | Results of comparison experiment (16DAA), weed control (Digitaria sanguinalis [2]; 48 g/ha): 30%
